Assay results reported in publication PMC4503722, “Novel Phenotypic Outcomes Identified for a Public Collection of Approved Drugs from a Publicly Accessible Panel of Assays” (PLoS ONE, 2015).

Legend:
[1] = system: ECFC/ADSC co-culture cell nuclei number; conditions: for IC50: read-out: VEGF_ADSC\ECFC Angio Hoechst NucArea summarized IC50
HCT116 = test: cells; format: cell-based; conditions: basal; for IC50 / Basal_Viability ATP HCT116 IC50/EC50: assay number 25; for IC50: read-out: Basal_Viability ATP HCT116 summarized IC50
[2] = system: HCT116 cells treated with a GSK3β inhibitor; test: cells; format: cell-based; conditions: for IC50 / GSK3b inh pretreated_Viability ATP HCT116 IC50/EC50: assay number 26, GSK3b inhibitor pretreated; for IC50: read-out: GSK3b inh pretreated_Viability ATP HCT116 summarized IC50; for IC50/EC50, GSK3b inh pretreated_Viability ATP HCT116 (assay number 26): GSK3b inh pretreated
[3] = system: endothelial tube formation in co-cultures of ECFCs and ADSCs treated with VEGF; test: cells; format: cell-based, human; conditions: for IC50: read-out: VEGF_ADSC\ECFC Angio CD31 TubeArea summarized IC50
SNU-C1 = test: cells; format: cell-based; conditions: basal; for IC50 / Basal_Viability ATP SNU-C1 IC50/EC50: assay number 30; for IC50: read-out: Basal_Viability ATP SNU-C1 summarized IC50
DLD-1 = test: cells; format: cell-based; conditions: basal; for IC50 / Basal_Viability ATP DLD-1 IC50/EC50: assay number 23; for IC50: read-out: Basal_Viability ATP DLD-1 summarized IC50
Colo320 = test: cells; format: cell-based; conditions: basal; for IC50 / Basal_Viability ATP Colo 320 IC50/EC50: assay number 27; for IC50: read-out: Basal_Viability ATP Colo 320 summarized IC50
SW480 = test: cells; format: cell-based; conditions: basal; for IC50 / Basal_Viability ATP SW480 IC50/EC50: assay number 24; for IC50: read-out: Basal_Viability ATP SW480 summarized IC50
RKO = test: cells; format: cell-based; conditions: basal; for IC50 / Basal_Viability ATP RKO IC50/EC50: assay number 29; for IC50: read-out: Basal_Viability ATP RKO summarized IC50
HT-29 = test: cells; format: cell-based; conditions: basal; for IC50 / Basal_Viability ATP HT-29 IC50/EC50: assay number 28; for IC50: read-out: Basal_Viability ATP HT-29 summarized IC50

| SMILES | IC50 [1] [µM] | IC50 (HCT116) [µM] | IC50 [2] [µM] | IC50 [3] [µM] | IC50 (SNU-C1) [µM] | IC50 (DLD-1) [µM] | IC50 (Colo320) [µM] | IC50 (SW480) [µM] | IC50 (RKO) [µM] | IC50 (HT-29) [µM] | IC50/EC50, VEGF_ADSC\ECFC Angio Hoechst NucArea (assay number 3) [1] [µM] | IC50/EC50, Basal_Viability ATP HCT116 (assay number 25) (HCT116) [µM] | IC50/EC50, GSK3b inh pretreated_Viability ATP HCT116 (assay number 26) [2] [µM] | IC50/EC50, VEGF_ADSC\ECFC Angio CD31 TubeArea (assay number 2) [3] [µM] | IC50/EC50, Basal_Viability ATP SNU-C1 (assay number 30) (SNU-C1) [µM] | IC50/EC50, Basal_Viability ATP DLD-1 (assay number 23) (DLD-1) [µM] | IC50/EC50, Basal_Viability ATP Colo 320 (assay number 27) (Colo320) [µM] | IC50/EC50, Basal_Viability ATP SW480 (assay number 24) (SW480) [µM] | IC50/EC50, Basal_Viability ATP RKO (assay number 29) (RKO) [µM] | IC50/EC50, Basal_Viability ATP HT-29 (assay number 28) (HT-29) [µM] | also measured |
| --- | --- | --- | --- | --- | --- | --- | --- | --- | --- | --- | --- | --- | --- | --- | --- | --- | --- | --- | --- | --- | --- |
| CNC(=O)Oc1cccc2ccccc12 [NCGC00090680-06] | > 10 | > 20 | > 20 | > 10 | > 20 | > 20 | > 20 | > 20 | > 20 | > 20 | – | – | – | – | – | – | – | – | – | – | – |
| COC(=O)c1ccccc1C(=O)OC [NCGC00090692-06] | > 10 | > 20 | > 20 | > 10 | > 20 | > 20 | > 20 | > 20 | > 20 | > 20 | – | – | – | – | – | – | – | – | – | – | – |
| CC1=C(/C=C/C(C)=C/C=C/C(C)=C/C(=O)Nc2ccc(O)cc2)C(C)(C)CCC1 [NCGC00090752-12] | – | – | – | – | – | – | – | – | – | – | 6.2365 | 5.2999 | 4.9507 | 1.3414 | 6.6943 | 9.4899 | 3.2421 | 4.8504 | 1.718 | 2.1199 | – |
| CCCCCCCCOC(=O)c1ccccc1C(=O)OCCCCCCCC [NCGC00090781-05] | – | – | – | – | – | – | – | – | – | – | – | – | – | – | – | – | – | – | – | – | VEGF_ADSC\ECFC Angio Hoechst NucArea IC50/EC50 [1]: > 10 µM; Basal_Viability ATP HCT116 IC50/EC50 (HCT116): > 20 µM; GSK3b inh pretreated_Viability ATP HCT116 IC50/EC50 [2]: > 20 µM; VEGF_ADSC\ECFC Angio CD31 TubeArea IC50/EC50 [3]: > 10 µM; Basal_Viability ATP SNU-C1 IC50/EC50 (SNU-C1): > 20 µM; Basal_Viability ATP DLD-1 IC50/EC50 (DLD-1): > 20 µM; Basal_Viability ATP Colo 320 IC50/EC50 (Colo320): > 20 µM; Basal_Viability ATP SW480 IC50/EC50 (SW480): > 20 µM; Basal_Viability ATP RKO IC50/EC50 (RKO): > 20 µM; Basal_Viability ATP HT-29 IC50/EC50 (HT-29): > 20 µM |
| CCOC(=O)c1ccccc1C(=O)OCC [NCGC00090974-06] | – | – | – | – | – | – | – | – | – | – | – | – | – | – | – | – | – | – | – | – | VEGF_ADSC\ECFC Angio Hoechst NucArea IC50/EC50 [1]: > 10 µM; Basal_Viability ATP HCT116 IC50/EC50 (HCT116): > 20 µM; GSK3b inh pretreated_Viability ATP HCT116 IC50/EC50 [2]: > 20 µM; VEGF_ADSC\ECFC Angio CD31 TubeArea IC50/EC50 [3]: > 10 µM; Basal_Viability ATP SNU-C1 IC50/EC50 (SNU-C1): > 20 µM; Basal_Viability ATP DLD-1 IC50/EC50 (DLD-1): > 20 µM; Basal_Viability ATP Colo 320 IC50/EC50 (Colo320): > 20 µM; Basal_Viability ATP SW480 IC50/EC50 (SW480): > 20 µM; Basal_Viability ATP RKO IC50/EC50 (RKO): > 20 µM; Basal_Viability ATP HT-29 IC50/EC50 (HT-29): > 20 µM |
| CC/C=C\C/C=C\C/C=C\CCCCCCCC(=O)O [NCGC00091058-11] | – | – | – | – | – | – | – | – | – | – | > 10 | > 20 | > 20 | > 10 | > 20 | > 20 | > 20 | > 20 | > 20 | > 20 | – |
